Source: patent US6825187B2, “Carbapenem derivatives of quarternary salt type” (Meiji Seika Kaisha, Ltd., priority 2000, dated 2004)
Values after ≈ are worked out from the molar mass of the structure shown. Structures can show the parent of a compound that is named as a salt.

What was measured:
[1] = system: S. aureus M 126 (Methicillin-hyperresistant strain); assay: Antimicrobial activities, MIC; type: cell-based; details: Sensitivity Disk agar-N+5% Horse blood, inoculants 10^6 CFU/ml
Experimental: (§1) The minimum inhibiting concentrations (MIC, μg/ml) of representative compounds, among the novel carbapenem derivatives of the present invention, to various pathogenic bacteria were measured in accordance with the method described in CHEMOTHERAPY, vol. 16, No. 1, 99, 1968. The culture medium for the measurement is Sensitivity Disk agar-N+5% Horse blood, and the amount of inoculants used is 10^6 CFU/ml.

H. influenzae PRC 2 = assay: Antimicrobial activities, MIC; type: cell-based; details: inoculants 10^6 CFU/ml; for minimum inhibiting concentrations (MIC): Sensitivity Disk agar-N+5% Horse blood
Experimental: as §1

E. faecalis W-73 = assay: Antimicrobial activities, MIC; type: cell-based; details: inoculants 10^6 CFU/ml; for minimum inhibiting concentrations (MIC): Sensitivity Disk agar-N+5% Horse blood
Experimental: as §1

H. influenzae PRC 44 = assay: Antimicrobial activities, MIC; type: cell-based; details: inoculants 10^6 CFU/ml; for minimum inhibiting concentrations (MIC): Sensitivity Disk agar-N+5% Horse blood
Experimental: as §1

B. catarrhalis W-0500 = assay: Antimicrobial activities, MIC; type: cell-based; details: inoculants 10^6 CFU/ml; for minimum inhibiting concentrations (MIC): Sensitivity Disk agar-N+5% Horse blood
Experimental: as §1

S. aureus 209P JC-1 = assay: Antimicrobial activities, MIC; type: cell-based; details: Sensitivity Disk agar-N+5% Horse blood, inoculants 10^6 CFU/ml
Experimental: as §1

[2] = system: S. epidermidis ATCC 14990; assay: Antimicrobial activities, MIC; type: cell-based; details: inoculants 10^6 CFU/ml; for minimum inhibiting concentrations (MIC): Sensitivity Disk agar-N+5% Horse blood
Experimental: as §1

E. hirae ATCC 8043 = assay: Antimicrobial activities, MIC; type: cell-based; details: inoculants 10^6 CFU/ml; for minimum inhibiting concentrations (MIC): Sensitivity Disk agar-N+5% Horse blood
Experimental: as §1

[3] = system: S. pneumoniae PRC 9 (Penicillin-hyperresistant strain); assay: Antimicrobial activities, MIC; type: cell-based; details: Sensitivity Disk agar-N+5% Horse blood, inoculants 10^6 CFU/ml
Experimental: as §1

K. pneumoniae PC 1602 = assay: Antimicrobial activities, MIC; type: cell-based; details: inoculants 10^6 CFU/ml; for minimum inhibiting concentrations (MIC): Sensitivity Disk agar-N+5% Horse blood
Experimental: as §1

C. freundii GN 346 = assay: Antimicrobial activities, MIC; type: cell-based; details: inoculants 10^6 CFU/ml; for minimum inhibiting concentrations (MIC): Sensitivity Disk agar-N+5% Horse blood
Experimental: as §1

E. coli NIHJ JC-2 = assay: Antimicrobial activities, MIC; type: cell-based; details: inoculants 10^6 CFU/ml; for minimum inhibiting concentrations (MIC): Sensitivity Disk agar-N+5% Horse blood
Experimental: as §1

P. vulgaris GN 7919 = assay: Antimicrobial activities, MIC; type: cell-based; details: inoculants 10^6 CFU/ml; for minimum inhibiting concentrations (MIC): Sensitivity Disk agar-N+5% Horse blood
Experimental: as §1

mice (ICR, male) = assay: Acute Toxicity Test; type: in vivo; details: intraveneously administered, 2000 mg/kg, one group of three mice
Experimental: The compound of Example 3 according to the present invention was intraveneously administered at a dose of 2000 mg/kg to mice (ICR, male) (one group consisting of three mice).

[4] = Staphylococcus aureus, read-out: minimum inhibiting concentrations (MIC)

Row | minimum inhibiting concentrations (MIC) [1] [µg/mL] | minimum inhibiting concentrations (MIC) (H. influenzae PRC 2) [µg/mL] | minimum inhibiting concentrations (MIC) (E. faecalis W-73) [µg/mL] | minimum inhibiting concentrations (MIC) (H. influenzae PRC 44) [µg/mL] | minimum inhibiting concentrations (MIC) (B. catarrhalis W-0500) [µg/mL] | minimum inhibiting concentrations (MIC) (S. aureus 209P JC-1) [µg/mL] | minimum inhibiting concentrations (MIC) [2] [µg/mL] | minimum inhibiting concentrations (MIC) (E. hirae ATCC 8043) [µg/mL] | minimum inhibiting concentrations (MIC) [3] [µg/mL] | minimum inhibiting concentrations (MIC) (K. pneumoniae PC 1602) [µg/mL] | minimum inhibiting concentrations (MIC) (C. freundii GN 346) [µg/mL] | minimum inhibiting concentrations (MIC) (E. coli NIHJ JC-2) [µg/mL] | minimum inhibiting concentrations (MIC) (P. vulgaris GN 7919) [µg/mL] | Structure (SMILES) | other results
1 | 1.56 | 0.05 | 0.20 | 0.20 | 0.025 | <0.025 | <0.025 | 0.78 | 0.025 | 0.10 | 0.10 | 0.025 | 0.20 | CSc1c2sc(C3=C(C(=O)[O-])N4C(=O)[C@H]([C@@H](C)O)[C@H]4[C@H]3C)cn2c[n+]1C [Example 2, (1S,5R,6S)-6-((1R)-1-hydroxyethyl)-1-methyl-2-(6-methyl-7-methylthioimidazo[5,1-b]thiazolium-2-yl)-1-carbapen-2-em-3-carboxylate (intramolecular salt)] | 
2 | 0.39 | 0.05 | 0.20 | 0.78 | 0.025 | <0.025 | <0.025 | 0.39 | 0.025 | 0.10 | 0.10 | 0.05 | 0.39 | CSc1c2sc(C3=C(C(=O)[O-])N4C(=O)[C@H]([C@@H](C)O)[C@H]4[C@H]3C)cn2c[n+]1CCCN.Cl [Example 14, (1S,5R,6S)-2-[6-(3-aminopropyl)-7-methylthioimidazo[5,1-b]thiazolium-2-yl]-6-((1R)-1-hydroxyethyl)-1-methyl-1-carbapen-2-em-3-carboxylate (intramolecular salt) hydrochloride] | 
3 | 0.78 | 0.10 | 0.20 | 0.78 | 0.05 | <0.025 | <0.025 | 0.39 | 0.05 | 0.10 | 0.20 | 0.05 | 0.39 | CSc1c2sc(C3=C(C(=O)[O-])N4C(=O)[C@H]([C@@H](C)O)[C@H]4[C@H]3C)cn2c[n+]1C[C@H](O)CN.Cl [Example 99, (1S,5R,6S)-2-[6-((2R)-3-amino-2-hydroxy)propyl-7-methylthioimidazo[5,1-b]thiazolium-2-yl]-6-((1R)-1-hydroxyethyl)-1-methyl-1-carbapen-2-em-3-carboxylate (intramolecular salt) hydrochloride] | 

The remaining lines, values behind:

Row | Structure (SMILES) | minimum inhibiting concentrations (MIC) [1] [µg/mL] | minimum inhibiting concentrations (MIC) (H. influenzae PRC 2) [µg/mL] | minimum inhibiting concentrations (MIC) (E. faecalis W-73) [µg/mL] | minimum inhibiting concentrations (MIC) (H. influenzae PRC 44) [µg/mL] | minimum inhibiting concentrations (MIC) (B. catarrhalis W-0500) [µg/mL] | minimum inhibiting concentrations (MIC) (S. aureus 209P JC-1) [µg/mL] | minimum inhibiting concentrations (MIC) [2] [µg/mL] | minimum inhibiting concentrations (MIC) (E. hirae ATCC 8043) [µg/mL] | minimum inhibiting concentrations (MIC) [3] [µg/mL] | minimum inhibiting concentrations (MIC) (K. pneumoniae PC 1602) [µg/mL] | minimum inhibiting concentrations (MIC) (C. freundii GN 346) [µg/mL] | minimum inhibiting concentrations (MIC) (E. coli NIHJ JC-2) [µg/mL] | minimum inhibiting concentrations (MIC) (P. vulgaris GN 7919) [µg/mL] | other results
4 | C[C@@H](O)[C@H]1C(=O)N2C(C(=O)O)=C(SCCN=CN)C[C@H]12 [Compound A, Imipenem, reference compound] |  |  |  |  |  |  |  |  |  |  |  |  |  | MIC [1, 4]: 25 µg/mL (≈ 83.5 µM); MIC (H. influenzae PRC 2; Haemophilus influenzae, PRC2, Sensitivity Disk agar-N+5% Horse blood, read-out: minimum inhibiting concentrations (MIC)): 0.79 µg/mL (≈ 2.64 µM); MIC (E. faecalis W-73; Enterococcus faecalis, W73, Sensitivity Disk agar-N+5% Horse blood, read-out: minimum inhibiting concentrations (MIC)): 0.78 µg/mL (≈ 2.61 µM); MIC (H. influenzae PRC 44; Haemophilus influenzae, PRC44, Sensitivity Disk agar-N+5% Horse blood, read-out: minimum inhibiting concentrations (MIC)): 12.5 µg/mL (≈ 41.8 µM); MIC (B. catarrhalis W-0500; Moraxella catarrhalis, W0500, Sensitivity Disk agar-N+5% Horse blood, read-out: minimum inhibiting concentrations (MIC)): 0.05 µg/mL (≈ 0.167 µM); MIC (S. aureus 209P JC-1; [4]): < 0.025 µg/mL; MIC ([2]; Staphylococcus epidermidis, ATCC14990, Sensitivity Disk agar-N+5% Horse blood, read-out: minimum inhibiting concentrations (MIC)): < 0.025 µg/mL; MIC (E. hirae ATCC 8043; Enterococcus hirae, ATCC8043, Sensitivity Disk agar-N+5% Horse blood, read-out: minimum inhibiting concentrations (MIC)): 0.78 µg/mL (≈ 2.61 µM); MIC ([3]; Streptococcus pneumoniae, read-out: minimum inhibiting concentrations (MIC)): 0.2 µg/mL (≈ 0.668 µM); MIC (K. pneumoniae PC 1602; Klebsiella pneumoniae, PC1602, Sensitivity Disk agar-N+5% Horse blood, read-out: minimum inhibiting concentrations (MIC)): 0.2 µg/mL (≈ 0.668 µM); MIC (C. freundii GN 346; Citrobacter freundii, GN346, Sensitivity Disk agar-N+5% Horse blood, read-out: minimum inhibiting concentrations (MIC)): 0.2 µg/mL (≈ 0.668 µM); MIC (E. coli NIHJ JC-2; Escherichia coli, NIHJJC2, Sensitivity Disk agar-N+5% Horse blood, read-out: minimum inhibiting concentrations (MIC)): 0.1 µg/mL (≈ 0.334 µM); MIC (P. vulgaris GN 7919; Proteus vulgaris, GN7919, Sensitivity Disk agar-N+5% Horse blood, read-out: minimum inhibiting concentrations (MIC)): 0.1 µg/mL (≈ 0.334 µM)
5 | C[C@@H](O)[C@H]1C(=O)N2C(C(=O)[O-])=C(c3cn4c[n+](C)cc4s3)[C@H](C)[C@H]12 [Compound B, (1S,5R,6S)-6-((1R)-1-Hydroxyethyl)-1-methyl-2-(6-methylimidazo[5,1-b]thiazolium-2-yl)-1-carbapen-2-em-3-carboxylate (intramolecular salt), reference compound] | 3.13 | 0.10 | 0.20 | 0.39 | <0.025 | <0.025 | <0.025 | 0.78 | 0.05 | 0.10 | 0.10 | <0.025 | 0.20 | 
6 | CSc1c2sc(C3=C(C(=O)[O-])N4C(=O)[C@H]([C@@H](C)O)[C@H]4[C@H]3C)cn2c[n+]1CC(N)=O [Example 3, (1S,5R,6S)-2-(6-carbamoylmethyl-7-methylthioimidazo[5,1-b]thiazolium-2-yl)-6-((1R)-1-hydroxyethyl)-1-methyl-1-carbapen-2-em-3-carboxylate (intramolecular salt)] | 1.56 | 0.05 | 0.20 | 0.20 | 0.025 | <0.025 | <0.025 | 0.39 | 0.025 | 0.10 | 0.20 | 0.025 | 0.20 | survival in acute toxicity test (mice (ICR, male)): all the mice survived
